From publication PMC7048748, “Anxiolytic Drug FGIN-1-27 Ameliorates Autoimmunity by Metabolic Reprogramming of Pathogenic Th17 Cells” (Scientific Reports, 2020)

How the values were obtained:
[1] = test system: Th17 cells; experiment: Th17 differentiation assay, intracellular IL-17 by flow cytometry; type: cell-based, mouse
Method: Because of differential TSPO expression in Th17 cells (Fig. S1a) and up-regulation of TSPO in neuroinflammation, we tested whether TSPO ligands, such as FGIN-1-27, can affect Th17 differentiation. In this assay, purified CD4^+ T cells from mouse spleens and lymph nodes were cultured under Th17 polarizing conditions. […] FGIN-1-27 treatment had no effect on protein or transcript levels of RORγt, the Th17 lineage-determining transcription factor.
Figure 1 FGIN-1-27 Inhibits Th17 Differentiation. Naïve CD4 T cells from spleens and lymph nodes of C57BL/6 mice were differentiated under Th17 polarization conditions and were treated with DMSO (control) or FGIN-1-27. (a) Dose response plot showing effect of FGIN-1-27 on intracellular IL-17 and viability on day 4 post activation quantified by flow cytometry. Data is normalized against DMSO (100%). […] (b) Dot plots showing DMSO or FGIN-1-27 treated cells stained for surface CD4, CD44, intracellular IL-17 and intranuclear RORγt. (c) Transcript levels for the indicated genes after 24 hours of treatment with DMSO or FGIN-1-27 quantified by qPCR. Data was normalized to a housekeeping gene, β-actin. Data are representative of at least 3 independent experiments and the error bars indicate standard deviation.
Single cell suspensions were prepared from spleens and lymph nodes of mice by mechanical disruption. Red blood cells were lysed by ammonium chloride followed by CD4^+ T cell purification using either CD4 microbeads (Miltenyi Biotec) or sorting for naïve CD4^+ T cells (FACS Aria). 250,000 cells/well in a 48 well plate were polarized into Th17 cells using Th17 differentiation cocktail: IFNγ, IL-4, IL-12 neutralizing antibodies (10 μg/ml) and 10 ng/ml each of IL-6, IL-1b, IL-21 and TGF-β (0.5 ng/ml). Cells were treated with FGIN-1-27 (Tocris Bioscience) or DMSO at 18 hour and 48 hours post cell plating. On day 4 of culture, cells were re-stimulated with PMA-ionomycin in the presence of brefeldin A. Cells were subsequently stained with viability dye and surface stained for CD44, CD4 followed by permeabilization using cytofix/cytoperm (BD biosciences) and stained for intracellular IL-17. RORγt intranuclear staining was performed after fixation and permeabilization with a Foxp3/Transcription Factor Staining kit (eBioscience). Cells were acquired on BD Fortessa followed by analysis using Flowjo (Tree star Inc).

[2] = test system: STAT3; experiment: Phospho Stat3 staining after IL-6 re-stimulation; type: cell-based, mouse; details: re-stimulation with IL-6
Method: The following day, cells were treated with either DMSO or of FGIN-1-27 (10 μM). For phospho-ZAP70 analyses, cells were stained after 24 hours of treatment using 10 μg/ml of biotinylated anti-CD3 (145-2C11, BD Biosciences) and anti-CD28 (37.51, BD Biosciences) antibodies on ice for 15 minutes, washed, and stimulated in presence of 20 μg/ml of Streptavidin for 10 minutes at 37 degrees. Cells were then fixed in 2% PFA, permeabilized in Methanol/Acetone and stained with anti-phospho ZAP70 antibody (n3kobu5, eBioscience) and anti-CD4 (RM4-5, eBioscience). For phospho-STAT3 analyses, cells were cultured for additional 24 hours in IL-6 free media, before stimulation with 100 ng/ml of mIL-6 for 30 minutes. Cells were then fixed in 2% PFA, permeabilized in Methanol/Acetone and stained with anti-phospho-STAT3 antibody (4/P-STAT3, BD Biosciences) and anti-CD4. Dead cells were excluded using Live/Dead […] (Thermo Fisher) staining prior to stimulation. page 3: Supplementary Figur es Fig S1 (a) Genomic browser screenshot of Tspo depicting normalized RNA-seq read coverage (RPM) in different T cell subsets. Data were downloaded from NCBI GEO (accession number GSE40918) and processed as in Figure 4A. […] (g) Transcript levels for S ta t3 after 24 hours of treatment with DMSO or FGIN-1-27 quantified by qPCR. […]

SMILES: CCCCCCN(CCCCCC)C(=O)Cc1c(-c2ccc(F)cc2)[nH]c2ccccc12 [FGIN-1-27, N, N-di-n-hexyl 2-(4-fluorophenyl) indole-3-acetamide]
- protein or transcript levels of RORγt [1]: no effect
- proliferation (CFSE dilution) ([1]; 72 hours post treatment): proliferated to the same extent as DMSO treated cells
- IC50 ([1]; Mus musculus, 96 h, day 4 post activation, normalized against DMSO (100%)): 4.85 µM
- viability ([1]; Th17 polarizing conditions): without compromising viability
- IL-17 producing cells abolished ([1]; compared to DMSO treated cultures): 85%
- CD4 / CD44 dot plot, percent of cells ([1]; treated cells, Fig. 1b): 98%
- IL-17 / RORγt dot plot, percent of cells ([1]; treated cells, Fig. 1b): 8.0%
- phosphorylation of STAT3 [2]: did not show a defect
